{"source": "BindingDB's records for doi:10.1021/jm00087a004", "about": "(Harvard Medical School, 1992)", "key": {"[1]": {"assay": "Binding affinity towards Opioid receptor delta 1"}, "[2]": {"assay": "Binding affinity towards Opioid receptor delta 1", "remark": "listed apart in the source"}}}
{"molecule": "CN1CCC2(c3cccc(O)c3)CCCC1C2", "note": "(stereo not drawn)", "values": [{"measurement": "Ki", "setting": "[1]", "result": "> 500", "unit": "nM"}]}
{"molecule": "CN1CCC2(c3cccc(O)c3)CCCC1[C@@H]2O", "note": "(stereo partly drawn)", "values": [{"measurement": "Ki", "setting": "[2]", "result": "> 500", "unit": "nM"}]}
{"molecule": "CN1CCC2(c3cccc(O)c3)CCCC1[C@H]2O", "note": "(stereo partly drawn)", "values": [{"measurement": "Ki", "setting": "[2]", "result": 420, "unit": "nM"}]}
